# Experimental data taken from US10919896B2, “Preparation and uses of pyrimidinone derivatives” (Cancer Research Technology Limited, priority 2016, dated 2021).
# Target: Cdc7/Dbf4 (Homo sapiens, UniProt O00311)
# Test: Cdc7 Biochemical Assay Method 3: Cdc7/Dbf4 Enzyme TR-FRET Assay measuring pS40MCM2
# Conditions: 1 μM ATP, read-out: Biochemical Method 3 (pIC50) (converted)
# Description: This protocol describes a method for assaying a compounds' ability to inhibit Cdc7 activity by measuring pS40MCM2 levels in a Cdc7/Dbf4 Enzyme TR-FRET Assay.
# 2.5 nM Cdc7/Dbf4 was incubated with 100 nM of biotin-labelled peptide 35-TDALTS(pS)PGRDLP in the presence of 1 μM ATP at 25° C. for 120 minutes. The phosphorylation of the peptide was detected using TR-FRET. Anti-Mcm2 (pS40) antibody, Terbium anti-rabbit secondary antibody and Streptavidin-Alexa Fluor488 form the detection system.
# Sequence of Cdc7/Dbf4 (O00311 whole entry): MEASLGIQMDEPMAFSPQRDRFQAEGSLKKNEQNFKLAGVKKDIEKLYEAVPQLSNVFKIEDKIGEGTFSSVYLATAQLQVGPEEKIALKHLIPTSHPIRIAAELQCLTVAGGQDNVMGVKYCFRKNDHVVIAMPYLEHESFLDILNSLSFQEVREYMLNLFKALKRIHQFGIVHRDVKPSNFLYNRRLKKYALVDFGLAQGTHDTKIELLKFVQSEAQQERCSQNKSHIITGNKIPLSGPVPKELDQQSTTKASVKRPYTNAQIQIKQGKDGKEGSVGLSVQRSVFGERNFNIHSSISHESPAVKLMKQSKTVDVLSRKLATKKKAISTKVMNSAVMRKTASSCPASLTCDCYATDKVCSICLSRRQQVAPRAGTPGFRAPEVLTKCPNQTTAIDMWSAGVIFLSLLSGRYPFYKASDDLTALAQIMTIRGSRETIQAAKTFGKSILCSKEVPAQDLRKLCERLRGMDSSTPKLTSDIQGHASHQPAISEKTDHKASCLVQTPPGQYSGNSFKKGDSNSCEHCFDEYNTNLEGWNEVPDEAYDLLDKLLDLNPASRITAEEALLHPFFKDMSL
# Sequence of Cdc7/Dbf4 (Q9UBU7 whole entry partner): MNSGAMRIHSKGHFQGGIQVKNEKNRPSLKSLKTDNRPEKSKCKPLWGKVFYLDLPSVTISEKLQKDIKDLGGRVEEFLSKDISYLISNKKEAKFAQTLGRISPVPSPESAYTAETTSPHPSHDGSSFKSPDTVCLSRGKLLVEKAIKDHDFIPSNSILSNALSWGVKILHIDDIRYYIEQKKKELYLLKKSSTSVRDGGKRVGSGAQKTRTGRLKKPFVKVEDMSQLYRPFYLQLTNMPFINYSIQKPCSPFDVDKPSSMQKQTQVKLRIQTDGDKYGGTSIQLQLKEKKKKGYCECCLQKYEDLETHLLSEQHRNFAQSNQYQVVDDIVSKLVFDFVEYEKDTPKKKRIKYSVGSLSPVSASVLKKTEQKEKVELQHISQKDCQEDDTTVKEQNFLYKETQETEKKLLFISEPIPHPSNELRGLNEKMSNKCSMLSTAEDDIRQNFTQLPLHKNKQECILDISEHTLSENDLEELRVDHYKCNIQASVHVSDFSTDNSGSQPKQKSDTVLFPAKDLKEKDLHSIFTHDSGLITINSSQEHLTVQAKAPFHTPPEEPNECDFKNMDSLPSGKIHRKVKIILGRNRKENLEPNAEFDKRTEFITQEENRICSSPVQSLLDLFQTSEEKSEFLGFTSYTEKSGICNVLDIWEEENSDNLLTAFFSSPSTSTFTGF
row,Structure (SMILES),IC50
1,O=c1[nH]c(-c2ccnc(F)c2)nc(N2CCC3(CCCNC3)C2)c1Cl (stereo not shown) [Compound 220],15.5 nM
2,O=c1[nH]c(-c2ccnc(F)c2)nc(NC2CCNCC2)c1Cl [Compound 222],13.5 nM
3,O=c1[nH]c(-c2ccnc(F)c2)nc(NCC2COCCN2)c1Cl (stereo not shown) [Compound 224],724 nM
4,O=c1[nH]c(-c2ccnc(F)c2)nc(N2CCC3CNCCC32)c1Cl (stereo not shown) [Compound 225],2.09 nM
5,O=c1[nH]c(-c2ccnc(F)c2)nc(N2CC3CNCC3C2)c1Cl (stereo not shown) [Compound 226],3.02 nM
6,O=c1[nH]c(-c2ccnc(F)c2)nc(N2CCOC3(CCNCC3)C2)c1Cl [Compound 227],2.24 nM
7,O=c1[nH]c(-c2ccnc(F)c2)nc(N2CCC(C3CCOCC3)C2)c1Cl (stereo not shown) [Compound 228],53.7 nM
8,CN(c1nc(-c2ccnc(F)c2)[nH]c(=O)c1Cl)C1CCOCC1 [Compound 229],8.51 nM
9,O=c1[nH]c(-c2ccnc(F)c2)nc(N2CCC3(CCNCC3)C2)c1Cl [Compound 230],6.61 nM
10,CNC(=O)C1CCN(c2nc(-c3ccnc(F)c3)[nH]c(=O)c2Cl)CC1 [Compound 231],2.88 nM
11,O=C1NC(=O)C2(CCN(c3nc(-c4ccnc(F)c4)[nH]c(=O)c3Cl)CC2)N1 [Compound 233],2.19 nM
12,O=c1[nH]c(-c2ccnc(F)c2)nc(N2CCC3(CC2)OCCO3)c1Cl [Compound 236],14.5 nM
13,O=c1[nH]c(-c2ccnc(F)c2)nc(N2C[C@H]3NCCO[C@@H]3C2)c1Cl [Compound 237],7.94 nM
14,O=c1[nH]c(-c2ccnc(F)c2)nc(N2CCC3(CCCO3)CC2)c1Cl [Compound 238],5.25 nM
15,NC(=O)N1CCN(c2nc(-c3ccnc(F)c3)[nH]c(=O)c2Cl)CC1 [Compound 239],1.1 nM
16,CN(C)C(=O)N1CCN(c2nc(-c3ccnc(F)c3)[nH]c(=O)c2Cl)CC1 [Compound 240],3.72 nM
17,O=c1[nH]c(-c2ccnc(F)c2)nc(N2CCC3(CCCN3)CC2)c1Cl [Compound 241],2.19 nM

row,Structure (SMILES),IC50
1,O=c1[nH]c(-c2ccnc(F)c2)nc(N2CCC3(CCNC3)CC2)c1Cl [Compound 242],1.15 nM
2,O=c1[nH]c(-c2ccnc(F)c2)nc(N2CCC3(CNC3)C2)c1Cl [Compound 245],2.04 nM
3,O=c1[nH]c(-c2ccnc(F)c2)nc(N2CCCC2CN2CCOCC2)c1Cl (stereo not shown) [Compound 246],1000 nM
4,NC(=O)[C@H]1CCCN1c1nc(-c2ccnc(F)c2)[nH]c(=O)c1Cl [Compound 247],4.57 nM
5,NC(=O)[C@@H]1CCCN1c1nc(-c2ccnc(F)c2)[nH]c(=O)c1Cl [Compound 248],42.7 nM
6,NC(=O)[C@@H]1CCN(c2nc(-c3ccnc(F)c3)[nH]c(=O)c2Cl)C1 [Compound 249],9.33 nM
7,O=c1[nH]c(-c2ccnc(F)c2)nc(N2CCCC3(CCCN3)C2)c1Cl (stereo not shown) [Compound 250],9.77 nM
8,NC(=O)[C@H]1CCN(c2nc(-c3ccnc(F)c3)[nH]c(=O)c2Cl)C1 [Compound 251],4.07 nM
9,CNC(=O)C1CCCN(c2nc(-c3ccnc(F)c3)[nH]c(=O)c2Cl)C1 (stereo not shown) [Compound 253],7.41 nM
10,CC(C)C(=O)NC1CCN(c2nc(-c3ccnc(F)c3)[nH]c(=O)c2Cl)CC1 [Compound 254],2.4 nM
11,CC(C)NC(=O)C1CCN(c2nc(-c3ccnc(F)c3)[nH]c(=O)c2Cl)CC1 [Compound 255],7.08 nM
12,O=C(NCCO)C1CCN(c2nc(-c3ccnc(F)c3)[nH]c(=O)c2Cl)CC1 [Compound 256],2 nM
13,CCNC(=O)C1CCN(c2nc(-c3ccnc(F)c3)[nH]c(=O)c2Cl)CC1 [Compound 257],6.03 nM
14,O=c1[nH]c(-c2ccnc(F)c2)nc(N2CCCC23CCNC3)c1Cl (stereo not shown) [Compound 259],2.82 nM
15,O=c1[nH]c(-c2ccnc(F)c2)nc(N2CCCC23CCNCC3)c1Cl [Compound 263],11 nM
16,O=c1[nH]c(-c2ccnc(F)c2)nc(N2CCCC3NCCCC32)c1Cl (stereo not shown) [Compound 264],1.58 nM
17,CN1CCN(C2CCN(c3nc(-c4ccnc(F)c4)[nH]c(=O)c3Cl)CC2)CC1 [Compound 265],4.07 nM
